Values after ≈ are worked out from the molar mass of the structure shown. Values joined by “and” are separate entries in the source; they are usually repeats but may differ in a detail not shown here. Equal entries are not always repeated. Where two headings read alike, the source gives them in different places.
What was measured:
[1] = system: Escherichia coli ATCC 35218; experiment: Antibacterial activity, broth microdilution (MIC/MBC); format: cell-based; settings: E. coli ATCC 35218; for MIC: 37 °C, 24 h
Protocol: (§1) The antibacterial activity of tested compounds was assessed by monitoring the cell growth of Staphylococcus aureus 8325-4 and Escherichia coli ATCC 35218 using the broth microdilution method, conducted according to the National Committee for Clinical Laboratory Standards. First, compounds were dissolved in methanol and the solution was added to Mueller Hinton broth (MHB) for bacteria to give a final concentration of 2000 µg/mL. The samples were then serially two-fold diluted in bullion to obtain concentration ranging from 1000 to 0.12 μg/mL in 96-well microtiter plate with the final volumes of 100 μL. Next, 100 μL of bacteria suspension was injected into each well. The final bacteria cell concentration was 1 × 10^6 colony-forming units per ml (CFU/mL). The plates were incubated at 37 °C for 24 h. The MIC value was determined as the lowest concentration of an antibacterial agent that inhibited bacterial growth, as indicated by the absence of turbidity. The MBC value was determined as the lowest concentration of antibacterial agents for which no bacterial growth on the plates was observed.

[2] = system: Staphylococcus aureus 8325-4; experiment: as above; format: cell-based; settings: S. aureus 8325-4; for MIC: 37 °C, 24 h
Protocol: as §1

[3] = system: S. aureus 8325-4 membrane proteins (Trp^214 residues); experiment: Trp fluorescence quenching of bacterial membrane proteins (Stern-Volmer); format: binding, Staphylococcus aureus; settings: for Stern-Volmer constant KSV: compound 0.5–2.0 µM, PBS pH 7.4, λexc 295 nm, λem 350 nm; for quenching constant kq: kq = KSV/τ0
Description: (§2) Based on fluorescence analysis, the Stern-Volmer plots were drawn (Figure 5) using equation given below (Equation (1)). (1) F0/F=1+KSV[Q] where: F0 and F are the Trp fluorescence without and in the presence of quencher (studied compounds), KSV—Stern-Volmer constant, [Q]—concentration of the quencher.
(§3) In order to check whether studied compounds form complexes with bacterial cells proteins, the quenching constants (kq) have been calculated using equation below (Equation (2)) and are presented in Table 3. (2) kq=KSV/τ0 where: kq—quenching constant, KSV—Stern-Volmer constant, τ0—fluorescence lifetime of fluorophore molecules.
(§4) Bacteria strains: S. aureus and E. coli grown overnight at 37 °C in Mueller Hinton (MH) broth with shaking at 200 rpm. Next, bacteria suspensions were centrifuged (2300× g, 15 min) and resuspended in PBS after removing the supernatant. For experiments, bacteria suspensions (OD600 = 0.1 in C = 10 mM PBS buffer, pH = 7.4) have been used in the presence (concentration range 0.5–2.0 µM) and without the studied compounds. The measurements were performed in quartz cuvette (1 cm × 1 cm). Fluorescence was monitored at the λexc. = 295 nm and λem. = 350 nm from tryptophan (Trp^214) residues in bacterial membrane proteins. The studies were carried out using Perkin-Elmer LS-55B (Perkin-Elmer, Pontyclun, UK) spectrofluorometer.

[4] = system: E. coli ATCC 35218 membrane proteins (Trp^214 residues); experiment: as above; format: binding, Escherichia coli; settings: for Stern-Volmer constant KSV: compound 0.5–2.0 µM, PBS pH 7.4, λexc 295 nm, λem 350 nm; for quenching constant kq: kq = KSV/τ0
Description: as §2, §3, §4

[5] = Cytotoxicity, resazurin, 72 h; format: cell-based, human; settings: human
Protocol: The studied compounds were evaluated for cytotoxicity in human cancer cell lines (cervical carcinoma HeLa, chronic myelogenous leukemia K562 and breast adenocarcinoma MCF7) and normal human retina cells RPE-1 (ca. 5.0 × 10^4 cells·mL^−1) after 72 h of treatment using resazurin (Merck/MilliporeSigma, St. Louis, MO, USA) as described earlier for Calcein AM dye.

[6] = system: lung cancer cell line A549; set-up: method as in PMID 33402081, PMID 23751199; settings: cited from earlier work
[7] = Escherichia coli, ATCC35218, read-out: MIC
[8] = Escherichia coli, ATCC35218, read-out: MBC
[9] = Staphylococcus aureus, 83254, read-out: MIC
[10] = Staphylococcus aureus, 83254, read-out: MBC
[11] = K562 chronic myelogenous leukemia cells, K562, 72 h
[12] = MCF7 breast adenocarcinoma cells, MCF7, 72 h
[13] = RPE-1 normal retina cells, RPE-1 normal cells

SMILES | MIC [1, 7] | MBC [1, 8] | MIC [2, 9] | MBC [2, 10] | Stern-Volmer constant KSV [3] | quenching constant kq [3] | Stern-Volmer constant KSV [4] | quenching constant kq [4] | IC50 at 72 h ([5]; HeLa cervical carcinoma cells) | IC50 at 72 h [5, 11] | IC50 at 72 h [5, 12] | IC50 at 72 h [5, 13] | melting point | also measured
C[C@@H]1CC[C@@]2(OC1)O[C@H]1C[C@H]3[C@@H]4CC=C5C[C@@H](O)CC[C@]5(C)[C@H]4CC[C@]3(C)[C@H]1[C@@H]2C [Diosgenin (1), diosgenin] | 250 µg/mL and 603 µM | 500 µg/mL (≈ 1210 µM) | 3.9 µg/mL and 9.4 µM | 15.6 µg/mL (≈ 37.7 µM) | 5.441 ± 0.131 10^4 M^−1 | 10.93 ± 0.27 10^12 M^−1s^−1 | 3.384 ± 0.165 10^4 M^−1 | 6.76 ± 0.35 10^12 M^−1s^−1 | – | – | – | – | – | MBC [1]: 500 µg/mL (≈ 1210 µM); MIC [1]: 250 µg/mL (≈ 603 µM); MBC [2]: 15.615 µg/mL (≈ 37.7 µM); MIC [2]: 3.9 µg/mL (≈ 9.41 µM); IC50 at 72 h ([5]; HeLa): > 50 µM; IC50 at 72 h ([5]; RPE-1 normal cells): > 50 µM; IC50 at 72 h ([5]; K562, 72 h): > 50 µM; IC50 at 72 h ([5]; MCF7, 72 h): > 50 µM
CCC1C(C)CCC2(OC3CC4C5CC=C6CC(O)CCC6(C)C5CCC4(C)C3C2C)S1(=O)=O (stereo not shown) [26-Ethylsulfone 12] | – | – | – | – | – | – | – | – | 44.1 ± 0.1 µM | > 50 µM | > 50 µM | > 50 µM | 210 to 212 °C | –
CC1CCC2(OC3CC4C5CC6OC67CC(O)CCC7(C)C5CCC4(C)C3C2C)S(=O)(=O)C1 (stereo not shown) [Epoxysulfone 9] | – | – | – | – | – | – | – | – | > 50 µM | > 50 µM | > 50 µM | > 50 µM | – | –
CC1CCC2(OC3CC4C5CC=C6CC(O)CCC6(C)C5CCC4(C)C3C2C)[S+]([O-])C1(C)C (stereo not shown) [Dimethylsulfoxide 10] | – | – | – | – | – | – | – | – | 32.2 ± 1.7 µM | > 50 µM | > 50 µM | > 50 µM | – | –
C[C@@H]1CC[C@@]2(OC1)O[C@H]1C[C@H]3[C@@H]4CC=C5C[C@@H](O[C@@H]6O[C@H](CO)[C@@H](O[C@@H]7O[C@@H](C)[C@H](O)[C@@H](O)[C@H]7O)[C@H](O)[C@H]6O[C@@H]6O[C@@H](C)[C@H](O)[C@@H](O)[C@H]6O)CC[C@]5(C)[C@H]4CC[C@]3(C)[C@H]1[C@@H]2C [dioscine] | – | – | – | – | – | – | – | – | – | – | – | – | – | IC50 [6]: 4.02 µM
CC1CCC2(OC3CC4C5CC=C6CC(O)CCC6(C)C5CCC4(C)C3C2C)[S+]([O-])C1 (stereo not shown) [Sulfoxide 6] | 125 µg/mL and 280 µM | 250 µg/mL (≈ 560 µM) | 3.9 µg/mL and 8.7 µM | 7.8 µg/mL (≈ 17.5 µM) | 4.051 ± 0.170 10^4 M^−1 | 8.14 ± 0.35 10^12 M^−1s^−1 | 1.456 ± 0.201 10^4 M^−1 | 2.92 ± 0.36 10^12 M^−1s^−1 | > 50 µM | > 50 µM | > 50 µM | > 50 µM | 143 to 146 °C | –
CC1CCC2(OC3CC4C5CC=C6CC(O)CCC6(C)C5CCC4(C)C3C2C)S(=O)(=O)C1C (stereo not drawn) [α-Methylsulfone 11] | 125 µg/mL and 262 µM | 250 µg/mL (≈ 524 µM) | 3.9 µg/mL and 8.2 µM | 7.8 µg/mL (≈ 16.4 µM) | 3.442 ± 0.168 10^4 M^−1 | 6.84 ± 0.34 10^12 M^−1s^−1 | 2.470 ± 0.101 10^4 M^−1 | 4.94 ± 0.17 10^12 M^−1s^−1 | 92.3 µM | > 50 µM | > 50 µM | > 50 µM | 225 to 227 °C | –
CC1CCC2(OC3CC4C5CC=C6CC(O)CCC6(C)C5CCC4(C)C3C2C)S(=O)(=O)C1 (stereo not shown) [Sulfone 8] | 125 µg/mL and 270 µM | 250 µg/mL (≈ 540 µM) | 3.9 µg/mL and 8.4 µM | 7.8 µg/mL (≈ 16.9 µM) | 2.915 ± 0.175 10^4 M^−1 | 5.82 ± 0.31 10^12 M^−1s^−1 | 2.962 ± 0.105 10^4 M^−1 | 5.92 ± 0.16 10^12 M^−1s^−1 | > 50 µM | > 50 µM | > 50 µM | > 50 µM | 205 to 207 °C | –
CC1CCC2(CC1)O[C@H]1C[C@H]3[C@@H]4CC[C@H]5C[C@@H](O)CC[C@]5(C)[C@H]4CC[C@]3(C)[C@H]1[C@@H]2C (stereo partly shown) [Carbaanalog 5] | 500 µg/mL and 1210 µM | 1000 µg/mL (≈ 2410 µM) | 7.8 µg/mL and 18.9 µM | 31.2 µg/mL (≈ 75.4 µM) | 1.258 ± 0.189 10^4 M^−1 | 2.52 ± 0.32 10^12 M^−1s^−1 | 2.021 ± 0.198 10^4 M^−1 | 4.04 ± 0.45 10^12 M^−1s^−1 | 38.2 ± 0.8 µM | > 50 µM | > 50 µM | > 50 µM | – | MIC [1]: 500 µg/mL (≈ 1210 µM); MIC [2]: 7.8 µg/mL (≈ 18.8 µM)
C[C@@H]1CC[C@]2(O[C@H]3C[C@H]4[C@@H]5CC=C6C[C@@H](O[C@@H]7O[C@H](CO)[C@@H](O[C@@H]8O[C@@H](C)[C@H](O)[C@@H](O)[C@H]8O)[C@H](O)[C@H]7O[C@@H]7O[C@@H](C)[C@H](O)[C@@H](O)[C@H]7O)CC[C@]6(C)[C@H]5CC[C@]4(C)[C@H]3[C@@H]2C)SC1 [26-thiodioscine] | – | – | – | – | – | – | – | – | – | – | – | – | – | IC50 [6]: 3.72 µM
CC1CCC2(OC3CC4C5CC=C6CC(O)CCC6(C)C5CCC4(C)C3C2C)SC1 (stereo not shown) [26-Thiodiosgenin (3), 26-thiodiosgenin] | 62.5 µg/mL and 145 µM | 125 µg/mL (≈ 290 µM) | 1.95 µg/mL and 4.5 µM | 3.9 µg/mL (≈ 9.06 µM) | 8.322 ± 0.142 10^4 M^−1 | 16.62 ± 0.23 10^12 M^−1s^−1 | 5.091 ± 0.152 10^4 M^−1 | 10.02 ± 0.28 10^12 M^−1s^−1 | > 50 µM | > 50 µM | > 50 µM | > 50 µM | – | MBC [1]: 125 µg/mL (≈ 290 µM); MIC [1]: 62.5 µg/mL (≈ 145 µM); MBC [2]: 3.9 µg/mL (≈ 9.06 µM); MIC [2]: 1.95 µg/mL (≈ 4.53 µM)
